Results as given in patent publication US7589063B2, “Molecules which promote hematopoiesis” (Aplagen GmbH, priority 2004, dated 2009).

System: TF-1 cells
Assay: Proliferation assay with TF-1 cells by MTT
Format: cell-based
Conditions: MTT-assay data, dose-response fitted with GraphPad
Protocol: TF-1 Cells in logarithmic growth phase (˜2×10^5−1×10^6 cells/ml; RPMI medium; 20% fetal calf serum; supplemented with Penicillin, streptomycin, L-Glutamine; 0.5 ng/ml Interleukin 3) are washed (centrifuge 5 min. 1500 rpm and resuspend in RPMI complete without IL3 at 500,000 cells/ml) and pre-cultured before start of the assay for 24 h without IL-3. At the next day the cells are seeded in 24- or 96-well plates usually using at least 6 concentrations and 4 wells per concentration containing at least 10,000 cells/well per agent to be tested. Each experiment includes controls comprising recombinant EPO as a positive control agent and wells without addition of cytokine as negative control agent. Peptides and EPO-controls are prediluted in medium to the desired concentrations and added to the cells, starting a culture period of 3 days under standard culture conditions (37° C., 5% carbon dioxide in the gas phase, atmosphere saturated with water). […]
At day 4, prior to start of the analysis, a dilution series of a known number of TF-1 cells is prepared in a number of wells (0/2500/5000/10000/20000/50000 cells/well in 100 μl medium). These wells are treated in the same way as the test wells and later provide a calibration curve from which cell numbers can be determined. […] 25 μl of 10% sodium dodecylsulfate in water are added to each well prior to measurement E492 in an ELISA Reader.

GGTYSCHFGGLTWVCKPQGG [SEQ. ID NO. 12]
EC50 values: no activity detectable
